Reference: patent US12655387B2, “Hair follicle primordia and method for producing same” (National University Corporation Yokohama National University, priority 2019, dated 2026)

System: epithelial cells and mesenchymal cells (hair follicle germ)
Experiment: co-culture of epithelial cells and mesenchymal cells in culture solution with dispersed additive; formation of hair shaft-like structure in hair follicle germ
Format: cell-based, C57BL/6 mouse
Details: for formation of hair follicle germ having a hair shaft-like structure: up to day 8 of culture
Description: A dorsal skin tissue was collected from a C57BL/6 mouse embryo at embryonic day 18, and was subjected to dispase treatment by a partially modified version of a method reported by […]. (Koh-ei Toyoshima et al. Nature Communications, 3, 784, 2012) at 4° C. under the shaking condition of 30 rpm for 1 hour to separate the epithelial layer and mesenchymal layer of the skin tissue. After that, the epithelial layer was treated with 100 U/mL collagenase for 1 hour and 20 minutes and further treated with trypsin for 10 minutes to isolate epithelial cells. In addition, the mesenchymal layer was treated with 100 U/mL collagenase for 1 hour and 20 minutes to isolate mesenchymal cells.
In example 1-1, the epithelial cells and the mesenchymal cells were co-cultured using a culture solution containing laminin, entactin, and type IV collagen. First, DMEM/F12 medium (Advanced Dulbecco's Modified Eagle Medi um/Ham's F-12, GIBCO® containing 1% GLUTAMAX® Supplement (L-glutamine supplement in […], GIBCO® and 0.2% NORMOCIN® (antimicrobial agent, INVIVOGEN®) was prepared as the culture solution.
Then, the epithelial cells and the mesenchymal cells in such amounts as to achieve a cell density of 5×10^3 cells/mL each (such amounts as to achieve a total cell density of 1×10^4 cells/mL) were suspended in the culture solution, and MATRIGEL® (MATRIGEL® Basement Membrane Matrix, CORNING®) in such an amount as to achieve a concentration of 1 v/v % was further added to prepare a cell suspension.
The Matrigel product used contained 10.6 mg/mL (protein amount measured by the Lowry method) of a soluble basement membrane matrix extracted from an Engelbreth-Holm-Swarm (EHS) mouse tumor, and a compositional ratio in the basement membrane matrix was as follows: 56% of laminin, 8% of entactin, and 31% of type IV collagen.
100 μL of the cell suspension was placed in each well of a 96-well plate (Prime surface (trademark), Sumitomo Bakelite Co., Ltd.) to inoculate the epithelial cells and the mesenchymal cells. […]

**Q.** For laminin, which “formation of hair shaft-like structure in hair follicle germ” value (1 v/v % of product at inoculation, day 8 of culture (examples 5-1, 5-2, 5-3, 6)) is on record?
**A.** Its value is “had no hair shaft-like structure formed therein”.

**Q.** And the “formation of hair follicle germ having a hair shaft-like structure” value (example C1-1: 5 v/v % of product (39 to 41 μg/mL laminin))?
**A.** The value was “a hair follicle germ having a hair shaft-like structure was not formed”.

**Q.** And the “formation of hair follicle germ having a hair shaft-like structure” value (example C1-2: 10 v/v % of product (78 to 82 μg/mL laminin))?
**A.** The value was “a hair follicle germ having a hair shaft-like structure was not formed”.
